Measurements published in patent publication US12239654B2, “Compounds and methods for treating neurological and cardiovascular conditions” (Astrocyte Pharmaceuticals, Inc., priority 2016, dated 2025).
“Also recorded” adds a separate entry of the source.

Columns and labels:
[1] = test system: mice subjected to traumatic brain injury (TBI); test: Traumatic brain injury (TBI) in mice, Western blot analysis for GFAP; type: in vivo, C57BL/6 mice; details: for GFAP expression in brain (GFAP/actin, Western blot): 7 days post-injury, vs TBI untreated; for efficacy in the mouse TBI model: summary statement, FIG. 12
Experimental: Animals and traumatic brain injury (TBI): TBI was performed with a controlled closed skull injury model as described in […] al. 2012 (J. Neurotrauma 30, 55-66). Following the method described therein, a pneumatic impact device was used to generate a moderate TBI leaving the skull and dura matter intact. To achieve this, C57BL/6 mice were anesthetized with isoflurane (3% induction, 1% maintenance) in 100% oxygen. A body temperature of 37° C. was maintained using a temperature-controlled heated surgical table. A small midline incision was made on the scalp using aseptic surgical techniques. A 5 mm stainless steel disc was positioned on the skull and fixed using superglue on the right parietal bone between bregma and lamda over the somatosensory cortex. The mouse was then positioned on a stage directly under the pneumatic impact tip. […] Scalp incisions were closed using 4-0 nylon braided suture and antibiotic ointment applied to the incision. Mice were placed in a Thermo-Intensive Care Unit (Braintree Scientific model FV-1; 37° C.; 27% 02) and monitored until fully awake and moving freely. […] Western Blot Analysis for GFAP: At selected survival times, mice were anesthetized under isoflurane and sacrificed. The brain was removed and placed on ice for dissection into impacted and non-impacted brain hemispheres. […] The homogenate was transferred to a 2 mL tube and centrifuged at 1000 g for 10 minutes at 4° C. and the supernatant was collected and analyzed. Protein concentration was determined by the BCA assay using a 1:50 dilution. 100 μg of protein was removed as an aliquot for each sample and Laemmli buffer containing β-mercaptoethanol added and the sample placed in a heat block for 3 minutes at 95° C. Samples were loaded on a 12% gel and ran at 80 V for 20 minutes followed by 40 minutes at 130 V. Samples were transferred to nitrocellulose membrane at 100 V for 1 hour. The membrane was blocked with 5% milk in TBS-T for 30 minutes. GFAP (1:1000-Imgenex IMG-5083-A) was added and placed at 4° C. overnight. The membrane was washed with TBS-T three times for 10 minutes. Secondary antibody for GFAP (Donkey anti-rabbit HRP conjugated (ImmunoJackson Laboratories; 711-035-152; 1:20000) was applied at room temperature for 1 hour. The membranes were washed with TB S-T for 15 minutes (3 times) and developed using the Western Lightning Plus-ECL kit (PerkinElmer, Inc.) following manufacturer's directions.

mice subjected to stroke = test: Photothrombosis-induced stroke in mice, TTC-stained brain infarction size; type: in vivo, C57Bl/6 mice; details: for size of brain infarctions in mice pretreated with A3 receptor antagonist MRS1523: MRS1523 2 mg/kg ip at 0 and 2 hour, treatment within 30 minutes of clot formation; for size of brain infarctions in mice pretreated with A3 receptor antagonist MRS1523 / size of the brain infarction (TTC staining): 24 hours; for size of the brain infarction (TTC staining): photothrombotic stroke mice, vs vehicle; for efficacy in the mouse photothrombotic stroke model: summary statement
Experimental: Photothrombosis-induced Stroke: Photothrombosis was performed as described in Zheng et al 2010 (PloS One 5 (12): e14401). In brief, Rose Bengal is a fluorescent dye that when injected into the vasculature and excited, generates singlet oxygen that damages the endothelial wall and induces a local thrombosis (clot). Using this technique, mice were given a 0.1 mL tail-vein injection of sterilized Rose Bengal (RB, Sigma, U.S.A.) in artificial cerebral spinal fluid (aCSF). The RB concentration was 20 mg/mL. A cortical region was centered in the imaging field and illuminated with a green laser (543 nm, 5 mW) using a 0.8-NA 40× water-immersion objective (Nikon, Tokyo). The clot formation was monitored in real time until the targeted vessel or downstream capillaries were firmly occluded. Stable clots were subsequently identified by a non-fluorescent vessel segmentation ending with highly fluorescent regions. […] Treatments, MRS4322 (0.16 mg/kg; 0.5 μmol/kg) or MRS2365 (0.24 mg/kg; 0.5 μmol/kg) were introduced via intraperitoneal injections (i.p.). For experiments with A3 receptor antagonist MRS1523, mice were administered intraperitoneal injections (2 mg/kg) at the 0 and 2 hour timepoints to ensure receptor antagonism throughout the course of the study.
Animals and Photothrombosis-induced Stroke: Stroke was performed as described in Zheng et al 2010 (PloS One 5 (12): e14401). Female C57Bl/6 mice (4-6 months) were used in this study. From the methods of this manuscript: Mice were anesthetized at 3% isoflurane with 100% oxygen and subsequently maintained at 1% isoflurane through a nosecone. Depth of anesthesia was monitored and regulated according to vital signs, pinch withdrawal and eye blinks. Body temperature was maintained at 37° C. by a feedback-controlled heating pad (Gaymar T/Pump). Vital signs including oxygen saturation, respiratory rate, and heart rate were continuously monitored by using the MouseOx system (STARR Life Sciences). The hair on each mouse's head was trimmed and a small incision was made in the scalp to expose the skull. A custom-made stainless steel plate was glued to the skull with VetBond Tissue Adhesive (3M, St Paul, MN). A cranial thinned-skull imaging window was created over the right primary somatosensory cortex (˜1.5 mm posterior to Bregma and 2 mm lateral from midline) depending on the experiment. In brief, a large region of the skull was first thinned with the electric drill and then further thinned with a surgical blade. The final thickness of the thinned skull was approximately 50 μm. After the cranial imaging window was created, mice were transferred to microscope stage and used for photothrombosis or imaging experiments. For the repeat imaging experiments, the plate was carefully detached from the skull and the scalp was sutured (Ethicon 6-0 sild suture). After each experiment, the mice were either returned to cages until the next timepoint or sacrificed. All procedures were approved by the Institutional Animal Care and Use Committee (IACUC) at University of Texas Health Science Center at San Antonio. Thirty minutes following stroke or sham (uninjured), mice were treated with either vehicle (saline) or drugs (MRS4322, MRS2365, MRS5698 or Cl-IBMECA).
Post photothrombotic infarction evaluation. The size of cerebral infarcts was evaluated using 2,3,5-Triphenyltetrazolium chloride (TTC) staining as described in Zheng et al 2010 (PloS One 5 (12): e14401). In brief, RB-induced lesions in brain slices were stained with TTC. TTC is a colorless dye that stains healthy brain tissue red when reduced by the mitochondrial enzyme succinyl dehydrogenase (Bederson J B et al., 1986). The absence of staining in necrotic tissue is then used to define the area of a brain infarction. Mice were sacrificed by cervical dislocation, their brains removed and then placed in ice cold HBSS for 3 minutes. The brain was subsequently transferred to a brain mold (KOPF), sliced into 1 mm sections and immersed in 2% TTC (5 min) at 37° C. […]

[2] = TBI mice, treated 30 min post-TBI, approximately 0.5 μmol/kg
[3] = 0.5 μmol/kg ip within 30 minutes of clot formation

Compound	GFAP expression in brain (GFAP/actin, Western blot) [1, 2]	GFAP levels in plasma relative to actin (Western blot) ([1]; TBI mice, treated 30 min post-TBI, approximately 0.5 μmol/kg, day 7, vs TBI untreated)	efficacy in the mouse TBI model [1]	size of brain infarctions in mice pretreated with A3 receptor antagonist MRS1523 (mice subjected to stroke)	size of the brain infarction (TTC staining) (mice subjected to stroke; [3])	size of the brain infarction (TTC staining) (mice subjected to stroke; 100 ul of 100 uM ip within 30 minutes of clot formation)	efficacy in the mouse photothrombotic stroke model (mice subjected to stroke)
CSc1nc(N)c2ncn([C@H]3[C@H](O)[C@H](O)[C@]4(CO)C[C@H]34)c2n1 [MRS4322]	significantly lower; also recorded: decreased	significantly reduced	significant efficacy	not reduced; also recorded: reversed by MRS1523	significantly reduced; also recorded: reduced the effects of stroke infarction	significantly reduced	significant efficacy
CNC(=O)[C@H]1O[C@@H](n2cnc3c(NCc4cccc(I)c4)nc(Cl)nc32)[C@H](O)[C@@H]1O [Cl-IB-MECA, 2-Chloro-N^6-(3-iodobenzyl)-adenosine-5′-N-methyluronamide, reference compound]			weakly active				inactive
CSc1nc(N)c2ncn([C@H]3[C@H](O)[C@H](O)[C@]4(COP(=O)(O)OP(=O)(O)O)C[C@H]34)c2n1 [MRS2365]	significantly lower; also recorded: decreased			not reduced	significantly reduced		
